Reference: ChEMBL document CHEMBL1201862, “PubChem BioAssay data set” (2004)
Calls of active or inactive are those of the source.

Assays:
Estrogen receptor beta = Estrogen receptor beta (Homo sapiens, UniProt Q92731);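 also: recombinant ER-beta bound to coactivator SRC1 peptide in presence of estradiol agonist; inhibitors block coactivator peptide binding and lower the FRET signal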
[1] = Luminescence-based cell-based high throughput dose response assay to identify activators of the DAF-12 from the parasite S. stercoralis (ssDAF-12).; assay type: functional
[2] = target: T1, Oxysterols receptor LXR-beta (Homo sapiens, UniProt P55055); assay: LXR agonists, Gal4 luciferase reporter, dose response, counter-screen for ssDAF-12 agonist project, cell-based, luminescence, HEK293, S. stercoralis campaign (AID 720737); assay type: functional; details: read-out: IC50 (the source's name)
T1 sequence (P55055 whole entry): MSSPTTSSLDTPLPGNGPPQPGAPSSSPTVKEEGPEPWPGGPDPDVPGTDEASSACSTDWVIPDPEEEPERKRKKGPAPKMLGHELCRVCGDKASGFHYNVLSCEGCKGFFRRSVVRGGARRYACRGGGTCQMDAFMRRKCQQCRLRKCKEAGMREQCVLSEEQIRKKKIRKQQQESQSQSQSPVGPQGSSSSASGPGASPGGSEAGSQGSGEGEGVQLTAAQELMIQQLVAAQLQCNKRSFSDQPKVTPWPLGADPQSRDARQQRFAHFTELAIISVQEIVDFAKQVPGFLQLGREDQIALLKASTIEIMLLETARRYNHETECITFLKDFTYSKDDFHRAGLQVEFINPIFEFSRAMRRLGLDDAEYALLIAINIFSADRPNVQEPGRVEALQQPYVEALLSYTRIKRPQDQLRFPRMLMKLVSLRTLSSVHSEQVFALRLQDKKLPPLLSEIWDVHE

[3] = Trypanosoma cruzi growth suppression in host cells – NIH3T3 host cells, beta-gal luminescence, confirmation (AID 2044); assay type: functional, cell-based;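 also: intracellular parasites grown in NIH/3T3 mouse fibroblasts as host cells; luminescent beta-galactosidase reporter signal from transgenic T. cruzi replicating inside host cells; inhibitors lower the luminescence signal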
[4] = target: FAD-linked sulfhydryl oxidase ALR (Homo sapiens, UniProt P55789); assay: ALR-catalysed DTT oxidation blockers – biochemical, H2O2 detection, luminescence, cherry-pick, dose response (AID 493248)
Sequence of FAD-linked sulfhydryl oxidase ALR (P55789 whole entry): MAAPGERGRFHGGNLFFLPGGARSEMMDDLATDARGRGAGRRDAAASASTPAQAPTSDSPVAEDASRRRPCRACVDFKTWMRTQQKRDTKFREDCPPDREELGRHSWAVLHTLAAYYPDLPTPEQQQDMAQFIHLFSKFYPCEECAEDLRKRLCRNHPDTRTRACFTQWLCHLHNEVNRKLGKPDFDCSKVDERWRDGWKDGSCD

[5] = NIH3T3 cell viability loss – ATP luminescence, mouse fibroblasts, counter-screen, dose response (AID 2010); assay type: functional, cell-based;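 also: cells exposed to compound for about 90 hours before reading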
[6] = target: T2, DNA repair protein RAD52 homolog (Homo sapiens, UniProt P43351); assay type: functional, biochemical
T2 sequence (P43351 whole entry): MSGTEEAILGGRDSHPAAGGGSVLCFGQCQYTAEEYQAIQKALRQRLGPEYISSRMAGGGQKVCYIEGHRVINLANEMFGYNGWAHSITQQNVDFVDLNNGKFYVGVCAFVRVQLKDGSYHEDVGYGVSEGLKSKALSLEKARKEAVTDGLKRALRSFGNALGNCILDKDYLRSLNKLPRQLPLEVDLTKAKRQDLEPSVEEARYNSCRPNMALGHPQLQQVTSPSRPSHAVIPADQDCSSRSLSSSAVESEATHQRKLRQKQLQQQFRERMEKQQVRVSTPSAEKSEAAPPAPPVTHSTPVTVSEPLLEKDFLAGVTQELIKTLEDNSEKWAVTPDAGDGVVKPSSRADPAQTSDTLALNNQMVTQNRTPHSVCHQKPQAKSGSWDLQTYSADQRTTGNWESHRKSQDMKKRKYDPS

[7] = target: T3, Glutathione-S-transferase (Schistosoma japonicum, UniProt Q26513); assay: GST-antibody interaction or FRET quenching – biochemical, TR-FRET, artefact control for Vif-APOBEC3G degradation inhibitor project, dose response (AID 1117362); assay type: functional
T3 sequence (Q26513 whole entry): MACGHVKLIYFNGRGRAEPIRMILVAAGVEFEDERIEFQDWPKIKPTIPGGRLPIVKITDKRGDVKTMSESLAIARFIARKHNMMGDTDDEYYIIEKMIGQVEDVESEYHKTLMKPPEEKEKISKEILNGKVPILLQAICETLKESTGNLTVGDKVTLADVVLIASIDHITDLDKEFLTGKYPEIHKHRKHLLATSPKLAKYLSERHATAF

[8] = viability loss in THP-1 monocytes – THP-1 cells, cytotoxicity control for Vif-APOBEC3G degradation inhibitor project, dose response (AID 1117359); assay type: functional; details: THP-1
[9] = target: T4, Histone-lysine N-methyltransferase NSD2 (Homo sapiens, UniProt O96028); assay type: biochemical
T4 sequence (O96028 whole entry): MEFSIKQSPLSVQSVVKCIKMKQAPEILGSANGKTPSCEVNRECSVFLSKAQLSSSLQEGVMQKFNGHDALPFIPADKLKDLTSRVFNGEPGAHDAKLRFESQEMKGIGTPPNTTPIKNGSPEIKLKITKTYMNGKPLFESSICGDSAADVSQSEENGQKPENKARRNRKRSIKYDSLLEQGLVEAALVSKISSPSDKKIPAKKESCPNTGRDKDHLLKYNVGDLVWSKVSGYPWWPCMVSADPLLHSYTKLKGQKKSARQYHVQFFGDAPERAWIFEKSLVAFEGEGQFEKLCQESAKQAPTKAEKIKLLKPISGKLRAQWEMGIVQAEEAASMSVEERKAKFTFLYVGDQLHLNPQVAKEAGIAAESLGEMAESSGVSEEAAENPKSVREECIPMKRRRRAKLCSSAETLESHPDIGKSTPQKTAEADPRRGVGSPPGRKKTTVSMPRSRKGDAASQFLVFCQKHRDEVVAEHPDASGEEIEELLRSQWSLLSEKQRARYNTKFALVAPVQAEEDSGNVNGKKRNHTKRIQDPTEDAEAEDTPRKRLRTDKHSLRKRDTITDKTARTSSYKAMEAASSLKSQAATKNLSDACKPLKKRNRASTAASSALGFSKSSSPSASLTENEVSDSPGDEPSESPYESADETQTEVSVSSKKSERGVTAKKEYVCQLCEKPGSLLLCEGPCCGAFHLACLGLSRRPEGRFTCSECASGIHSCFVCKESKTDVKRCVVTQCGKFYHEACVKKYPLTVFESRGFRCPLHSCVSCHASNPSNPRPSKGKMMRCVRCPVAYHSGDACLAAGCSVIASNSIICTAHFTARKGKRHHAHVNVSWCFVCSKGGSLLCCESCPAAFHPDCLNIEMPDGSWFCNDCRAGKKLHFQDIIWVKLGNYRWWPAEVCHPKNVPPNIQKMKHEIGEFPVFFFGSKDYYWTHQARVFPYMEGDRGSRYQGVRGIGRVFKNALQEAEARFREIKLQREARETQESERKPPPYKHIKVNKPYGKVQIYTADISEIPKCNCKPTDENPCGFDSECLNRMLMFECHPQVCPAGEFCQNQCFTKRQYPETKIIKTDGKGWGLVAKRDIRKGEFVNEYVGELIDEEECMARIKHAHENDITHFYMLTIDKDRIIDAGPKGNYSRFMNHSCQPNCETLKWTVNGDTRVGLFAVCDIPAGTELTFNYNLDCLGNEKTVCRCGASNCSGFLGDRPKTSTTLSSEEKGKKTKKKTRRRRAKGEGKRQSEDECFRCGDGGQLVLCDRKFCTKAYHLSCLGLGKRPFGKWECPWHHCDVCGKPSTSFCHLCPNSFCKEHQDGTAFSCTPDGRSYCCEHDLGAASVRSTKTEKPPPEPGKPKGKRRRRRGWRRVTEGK

Caspase-6 = target: T5, Caspase-6 (Homo sapiens, UniProt P55212); assay: inhibition of CASP6 peptide cleavage – biochemical, VEID-R110 fluorescence, cherry-pick, dose response (AID 720632)
T5 sequence (P55212 whole entry): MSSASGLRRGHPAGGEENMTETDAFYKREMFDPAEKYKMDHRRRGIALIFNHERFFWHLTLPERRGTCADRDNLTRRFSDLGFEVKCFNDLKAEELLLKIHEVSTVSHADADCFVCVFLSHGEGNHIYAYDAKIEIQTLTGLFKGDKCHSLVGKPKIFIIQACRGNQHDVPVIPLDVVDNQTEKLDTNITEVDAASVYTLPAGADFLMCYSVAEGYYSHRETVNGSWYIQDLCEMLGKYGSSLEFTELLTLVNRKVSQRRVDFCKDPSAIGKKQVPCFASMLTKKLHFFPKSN

Sequence of Estrogen receptor beta (Q92731 whole entry): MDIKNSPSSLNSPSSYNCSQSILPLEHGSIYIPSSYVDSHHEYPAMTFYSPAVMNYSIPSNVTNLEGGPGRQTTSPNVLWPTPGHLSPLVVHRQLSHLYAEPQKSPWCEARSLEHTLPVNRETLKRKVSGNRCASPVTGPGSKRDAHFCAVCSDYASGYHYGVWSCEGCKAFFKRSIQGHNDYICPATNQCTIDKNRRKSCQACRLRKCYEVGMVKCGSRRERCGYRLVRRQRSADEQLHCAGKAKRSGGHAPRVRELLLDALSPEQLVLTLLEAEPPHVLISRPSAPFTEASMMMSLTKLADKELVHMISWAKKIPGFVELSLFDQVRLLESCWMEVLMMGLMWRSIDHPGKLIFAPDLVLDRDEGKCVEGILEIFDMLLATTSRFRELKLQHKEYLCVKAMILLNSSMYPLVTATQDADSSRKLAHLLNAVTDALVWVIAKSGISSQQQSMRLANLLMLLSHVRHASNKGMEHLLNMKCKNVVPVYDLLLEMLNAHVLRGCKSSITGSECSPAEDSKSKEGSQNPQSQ

CCSc1nnc(Cc2cc(=O)[nH]c(=O)[nH]2)n1-c1cc(C)ccc1C
IC50 (Estrogen receptor beta): > 50 µM (not active)

C=CCn1c(COc2ccc(OC)cc2)nnc1SCn1nnc2ccccc2c1=O
IC50 [1]: > 67.6 µM (inactive) | EC50 [2]: > 67.6 µM (inactive)

CC1(C)CC(Nc2ccc(Nc3ccccc3)cc2)CC(C)(C)N1
EC50 [3]: 4.14 µM (active) | AC50 [4]: 0.27 µM (active) | EC50 [5]: > 60 µM (not active) | AC50 [6]: 13.9 µM (active) | IC50 [7]: 64.5 µM (active) | CC50 [8]: > 40 µM (active)

Cc1cc(/C=C\c2nc(O)c([N+](=O)[O-])c(O)n2)c(C)n1-c1ccccc1
AC50 [9]: > 20 µM (inactive) | AC50 (Caspase-6): 19.2 µM (active)
